Results taken from patent US10174331B2, “Methods and compositions for nuclease-mediated targeted integration of transgenes” (Sangamo BioSciences, Inc., priority 2012, dated 2019).

How the values were obtained:
[1] = system: scutella of wheat cv. Bobwhite MPB26RH and cv. Clearfield Janz; assay: Basal tolerance to IMAZAMOX at callus induction stage; format: cell-based, Triticum aestivum
Experimental: A series of experiments were performed to determine optimal selection conditions for regenerating AHAS edited wheat plants. These experiments were based on testing the basal tolerance to IMAZAMOX™ of the donor wheat line cv. Bobwhite MPB26RH(S653/S653 genotype) at the callus induction, plant regeneration and rooting stages of an established wheat transformation system. Similar experiments were performed to determine the basal tolerance and resistance of cv. Clearfield Janz genotypes carrying the different doses of the S653N mutation; i.e., plants with N653/N653 and S653/S653 genotypes.
The basal tolerance of the donor wheat line cv. Bobwhite MPB26RH and basal resistance of cv. Clearfield Janz (N653/N653) genotype to IMAZAMOX® at the callus induction stage was determined as follows: Scutella of immature zygotic embryos from each wheat line were isolated as described previously and placed in 10 cm PETRI™ dishes containing CIM medium supplemented with 0, 50, 100, 200, 300, 400 and 500 nM IMAZAMOX® respectively. Twenty scutella were placed in each PETRI™ dish. A total of 60 scutella from each of the donor wheat line cv. Bobwhite MPB26RH and cv. […] After incubation at 24° C. in the dark for 4 weeks, the amount of somatic embryogenic callus formation (SEC) at each IMAZAMOX® concentration was recorded. […]

[2] = system: wheat cv. Bobwhite MPB26RH and cv. Clearfield Janz; assay: Basal tolerance to IMAZAMOX at plant regeneration stage; format: in vivo, Triticum aestivum
Experimental: The basal tolerance of the donor wheat line cv. Bobwhite MPB26RH to IMAZAMOX® at the plant regeneration stage was determined as follows: Scutella of immature zygotic embryos from the donor wheat line were isolated as described previously and placed in 10 cm PETRI™ dishes containing CIM medium. Somatic embryogenic callus was allowed to form by incubating at 24° C. in the dark for 4 weeks. The SEC was transferred to 10 cm PETRI™ dishes containing DRM medium supplemented with 0, 100, 200, 300, 400, 500 and 1000 nM IMAZAMOX® respectively. Twenty CIM were placed in each PETRI™ dish. A total of 60 CIM were tested for basal tolerance response at each IMAZAMOX® concentration. After incubation for 2 weeks at 24° C. under a 16/8 (light/dark) hour photoperiod in a growth room, the regeneration response was recorded.
The basal tolerance of the cv. Clearfield Janz (S653/S653) genotype and basal resistance of the cv. Clearfield Janz (N653/N653) genotype to IMAZAMOX® at the plant regeneration stage was determined using a modified approach, as cv. […] Seed for each cv. Clearfield Janz genotype was germinated using the aseptic approach described above for producing wheat mesophyll protoplasts. […] After incubation for 3 weeks at 24° C. under a 16/8 (light/dark) hour photoperiod in a growth room, the growth response was recorded. […]

[3] = system: wheat cv. Bobwhite MPB26RH, wild-type and AHAS(P197S) transgenic events; assay: Basal tolerance to sulfometuron methyl at plant rooting stage; format: in vivo, Triticum aestivum; settings: wild-type donor wheat line; concentrations higher than 400 nM; 3 weeks
Experimental: The basal tolerance of the wild-type donor wheat line to sulfometuron methyl at the plant rooting stage was determined as follows: Scutella of immature zygotic embryos were isolated and placed in 10 cm PETRI™ dishes containing CIM medium. Somatic embryogenic callus was allowed to form by incubating at 24° C. in the dark for 4 weeks. The SEC was transferred to 10 cm PETRI™ dishes containing DRM medium and incubated for 2 weeks at 24° C. under a 16/8 (light/dark) hour photoperiod to allow plant regeneration to take place. Regenerated plants were transferred to 10 cm PETRI™ dishes containing RM medium supplemented with 0, 100, 200, 250, 300, 400, 500, 1000 and 2000 nM sulfometuron methyl, respectively. Ten regenerated plants were placed in each PETRI™ dish. […] After incubation for 3 weeks at 24° C. under a 16/8 (light/dark) hour photoperiod in a growth room, the root formation response was recorded.
The basal tolerance of transgenic wheat events with randomly integrated, low-copy (≤3) T-DNA expressing the AHAS(P197S) mutation to sulfometuron methyl at the plant rooting stage was determined as follows: Four independent transgenic events were randomly selected and multiplied in vitro by sub-culturing on multiplication medium. […] After incubation for 2 weeks at 24° C. under a 16/8 (light/dark) hour photoperiod in a growth room, the root formation response was recorded.

[4] = system: wheat cv. Bobwhite MPB26RH; assay: Basal tolerance to sulfometuron methyl at plant regeneration stage; format: in vivo, Triticum aestivum; settings: wild-type cv. Bobwhite MPB26RH; 2000 nM; 2 weeks
Experimental: The basal tolerance of the wild-type donor wheat line to sulfometuron methyl at the plant regeneration stage was determined as follows: Scutella of immature zygotic embryos from the donor wheat line were isolated and placed in 10 cm PETRI™ dishes containing CIM medium. Somatic embryogenic callus was allowed to form by incubating at 24° C. in the dark for 4 weeks. The SEC was transferred to 10 cm PETRI™ dishes containing DRM medium supplemented with 0, 100, 500, 1000, 1500, 2000, 2500 and 3000 nM sulfometuron methyl, respectively. Twenty CIM were placed in each PETRI™ dish. A total of 60 CIM were tested for basal tolerance response at each sulfometuron methyl concentration. After incubation for 2 weeks at 24° C. under a 16/8 (light/dark) hour photoperiod in a growth room, the regeneration response was recorded.

[5] = system: scutella of wheat cv. Bobwhite MPB26RH; assay: Basal tolerance to sulfometuron methyl at callus induction stage; format: cell-based, Triticum aestivum; settings: 100 nM, 4 weeks
Experimental: A series of experiments were performed to determine optimal selection conditions for regenerating wheat plants expressing the AHAS(P197S) mutation conferring tolerance to sulfonylurea class herbicides. These experiments were based on testing the basal tolerance of the wild-type donor wheat line cv. Bobwhite MPB26RH (P197/P197 genotype, which confers susceptibility to sulfonylureas) at the callus induction, plant regeneration and rooting stages of an established wheat transformation system. Similar experiments were performed to determine the basal tolerance of transgenic cv. Bobwhite MPB26RH events that had randomly integrated T-DNA expressing the AHAS(P197) mutation, which confers tolerance to sulfonylurea selection agents.
The basal tolerance of the wild-type donor wheat line to sulfometuron methyl at the callus induction stage was determined as follows: Scutella of immature zygotic embryos were isolated, as previously described, and placed in 10 cm PETRI™ dishes containing CIM medium supplemented with 0, 100, 500, 1000, 1500 and 2000 nM sulfometuron methyl, respectively. Twenty scutella were placed in each PETRI™ dish. A total of 60 scutella were tested at each sulfometuron methyl concentration. After incubation at 24° C. in the dark for 4 weeks, the amount of somatic embryogenic callus formation (SEC) at each sulfometuron methyl concentration was recorded. […]

COCc1cnc(C2=NC(C)(C(C)C)C(=O)N2)c(C(=O)O)c1 (stereo not shown) [IMAZAMOX]
reduction of SEC formation compared to untreated samples ([1]; cv. Bobwhite MPB26RH, 100 nM, 4 weeks): about 70% | callus formation relative to the untreated control ([1]; cv. Clearfield Janz (N653/N653), any concentration tested (50-500 nM)): unaffected | reduction of plant regeneration compared to untreated samples ([2]; cv. Bobwhite MPB26RH, 200 nM, 2 weeks): about 80% | concentration that had to be exceeded before plant growth was strongly suppressed ([2]; cv. Clearfield Janz (N653/N653), 3 weeks): exceeded 2,000 nM

COC(=O)c1ccccc1S(=O)(=O)NC(=O)Nc1nc(C)cc(C)n1 [sulfometuron methyl]
root formation compared to untreated samples [3]: severely inhibited | reduction of plant regeneration compared to untreated samples [4]: about 80% | reduction of SEC formation compared to untreated samples [5]: about 70%
